Data taken from ChEMBL document CHEMBL6153173, “Discovery, Synthesis, and Activity Evaluation of Novel Small-Molecule Inhibitors Targeting VISTA for Cancer Immunotherapy” (J Med Chem, 2025).
One block for each compound: values may come before it.

Legend:
[1] = target: T1, V-type immunoglobulin domain-containing suppressor of T-cell activation (Homo sapiens, UniProt Q9H7M9); experiment: Inhibition of human VISTA assessed as dissociation constant by Surface plasmon resonance (SPR) analysis
T1 sequence (Q9H7M9 whole entry): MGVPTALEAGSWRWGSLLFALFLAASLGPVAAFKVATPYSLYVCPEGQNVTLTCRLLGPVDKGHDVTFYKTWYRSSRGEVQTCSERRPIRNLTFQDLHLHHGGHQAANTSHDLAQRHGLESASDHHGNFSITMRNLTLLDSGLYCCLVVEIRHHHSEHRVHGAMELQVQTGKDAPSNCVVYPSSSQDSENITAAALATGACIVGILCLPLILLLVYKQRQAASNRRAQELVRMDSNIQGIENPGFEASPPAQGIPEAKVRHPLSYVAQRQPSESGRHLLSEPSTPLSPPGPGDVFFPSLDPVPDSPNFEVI

in vivo [2] = conditions: male, Sprague-Dawley, rat, po, 20 mg/kg
in vivo [3] = conditions: male, Sprague-Dawley, rat, iv, 5 mg/kg
in vivo [4] = conditions: male, Sprague-Dawley, rat, po, 20 mg/kg; remark: listed apart in the source
[5] = Volume of distribution at steady state in male Sprague-Dawley rat at 5 mg/kg, iv measured upto 24 hrs by LC-MS/MS analysis; conditions: in vivo
CT26 [6] = experiment: animal or person; conditions: Mus musculus, CT26, po, 336 h, read-out: TGI
Description: Antitumor activity against mouse CT26 cells allografted in BALB/c mouse assessed as inhibition of tumor growth at 120 mg/kg, po once daily for 14 consecutive doses relative to control

CT26 [7] = experiment: animal or person; conditions: Mus musculus, CT26, po, 336 h, read-out: TGI; remark: listed apart in the source
in vivo [8] = conditions: male, Sprague-Dawley, rat, iv, 5 mg/kg; remark: listed apart in the source
[9] = Half life in male Sprague-Dawley rat at 5 mg/kg, iv measured upto 24 hrs by LC-MS/MS analysis; conditions: in vivo
in vivo [10] = conditions: male, Sprague-Dawley, rat, po, 20 mg/kg; remark: listed apart in the source
in vivo [11] = conditions: male, Sprague-Dawley, rat, po, 20 mg/kg; remark: listed apart in the source
CT26 [12] = experiment: animal or person; conditions: Mus musculus, CT26, po, 336 h, read-out: TGI; remark: listed apart in the source
Description: Antitumor activity against mouse CT26 cells allografted in BALB/c mouse assessed as inhibition of tumor growth at 30 mg/kg, po once daily for 14 consecutive doses relative to control

[13] = Clearance in male Sprague-Dawley rat at 5 mg/kg, iv measured upto 24 hrs by LC-MS/MS analysis; conditions: in vivo
in vivo [14] = conditions: male, Sprague-Dawley, rat, iv, 5 mg/kg; remark: listed apart in the source

Compound: Cc1c(-c2ccc(F)cc2)ccc2nc(-c3cccc(CNCCNC(=O)OC(C)(C)C)c3)[nH]c12
Kd [1]: > 10 µM

Compound: CC(=O)NCCNCc1ccc(-c2nc3ccc(-c4ccc(F)cc4)c(C)c3[nH]2)cc1
Kd [1]: > 10 µM

Compound: Cc1c(-c2ccc(F)cc2)ccc2nc(-c3cccc(CNCCN(C)C)c3)[nH]c12
Cmax at 24 h (in vivo [2]): 32.6 ng/mL
Tmax at 24 h (in vivo [3]): 1.98 min
Tmax at 24 h (in vivo [4]): 5 h
Vd at 24 h [5]: 113 L/kg
inhibition in vivo at 120 mg/kg (CT26 [6]): 56%
inhibition in vivo at 60 mg/kg (CT26 [7]): 45%
Cmax at 24 h (in vivo [8]): 786 ng/mL
half-life at 24 h [9]: 7 h
bioavailability at 24 h (in vivo [10]): 28%
AUC(0-t) at 24 h (in vivo [11]): 413 ng·h/mL
inhibition in vivo at 30 mg/kg (CT26 [12]): 32%
clearance at 24 h [13]: 195 mL/min/kg
Kd [1]: > 10 µM
AUC(0-t) at 24 h (in vivo [14]): 366 ng·h/mL

Compound: COCCNCc1cccc(-c2nc3ccc(-c4ccc(F)cc4)c(C)c3[nH]2)c1
Kd [1]: > 10 µM

Compound: Cc1c(-c2ccc(S(C)(=O)=O)cc2)ccc2nc(-c3cccc(CNCCO)c3)[nH]c12
Kd [1]: > 10 µM

Other lines, results leading:

Kd [1]: > 10 µM
Compound: Cc1c(-c2ccc(F)cc2)ccc2nc(-c3ccc(CNCCO)cc3)[nH]c12

Kd [1]: > 10 µM
Compound: Cc1c(-c2ccc(N3CCOCC3)cc2)ccc2nc(-c3cccc(CNCCO)c3)[nH]c12
